According to article PMC7913291, “Synthesis and Anti-Hepatocarcinoma Effect of Amino Acid Derivatives of Pyxinol and Ocotillol” (Molecules, 2021):
Where two headings read alike, the source gives them in different places.

Columns and labels:
[1] = test system: IL-2; test: Serum IL-2 level in H22 tumor-bearing mice; type: in vivo, Kunming mice; details: mean ± SD
Experimental: (§1) Cyclophosphamide (CTX), used as the positive drug, was purchased from Sigma (St. Lousis, MO, USA. Detecting kits for IL-2, TNF-α, VEGF, AST, ALT, CRE and BUN were purchased from Nanjing Jiancheng Biotechnology Co. (Nanjing, China).
(§2) 24 h after the last administration, the whole blood was collected from the orbit. Serum was obtained from whole blood by centrifugation (3500 rpm, 15 min, 4 °C) and stored at −20 °C. The levels of IL-2, TNF-α, VEGF, AST, ALT, BUN and CRE in serum were determined in accordance with the procedures described in commercial kit instructions.

[2] = test system: HepG2 cells; test: Cytotoxic activity on HepG2 cells (CCK-8 assay); type: cell-based; details: Homo sapiens, read-out: IC50 over HepG2 cells
Experimental: Human hepatocellular liver carcinoma cell line (HepG2) were obtained from Institute of Biochemistry and Cell Biology, Academy of Science (Shanghai, China) and were authenticated using the STR profiling method. HepG2 cells were cultured in MDEM (Gibco, Waltham, MA, USA) supplemented with 10% fetal bovine serum (FBS) and 1% penicillin-streptomycin bubbled with 5% CO2-enriched air at a temperature of 37 °C (Thermo Scientific, Waltham, MA, USA). The cytotoxic effect of compounds on HepG2 cells was assessed by using CCK-8 method. Briefly, HepG2 cells were cultured in 96-well plates at a density of 5 × 10^3 cells per well for 24 h. […] Three replicates were performed. The relative cell viability was expressed as percentage relative to the untreated cells. The inhibition ratio was calculated. The IC50 values were calculated using Logistic regression from three independent tests.

[3] = Hepatic and renal function (serum ALT, AST, CRE, BUN) in H22 tumor-bearing mice
Experimental: as §1, §2

[4] = test system: TNF-α; test: Serum TNF-α level in H22 tumor-bearing mice; type: in vivo, Kunming mice; details: mean ± SD
Experimental: as §1, §2

[5] = test system: H22 transplanted tumor; test: Antitumor activity in H22 tumor-bearing mice (tumor weight, volume, inhibition rate, tumor histology); type: in vivo, Kunming mice
Experimental: Hepatocellular carcinoma cell line (H22) was purchased from the Cell Bank of Type Culture Collection Committee of Chinese Academy of Sciences (Shanghai, China), and cultured in Dulbecco's modified eagle medium supplemented with 10% fetal calf serum and then cultured at 37 °C in 5% CO2. […] (Changchun, China). All the mice, given food and water ad libitum, were raised in temperature and humidity controlled (23 ± 2 °C, 50 ± 10% humidity) environment under a 12 h light/dark cycle. The mice were acclimatized for at least 1 week before use. The animal experiments were performed in accordance with the guidelines for the Care and Use of Laboratory Animals and approved by the ethics committee of School of Pharmaceutical Sciences, Jilin University, China. H22 cells, resuspended in normal saline with final concentration of 5 × 10^6 cells/mL, were injected into the abdominal cavity of mice under aseptic conditions. After 1 week, ascites tumor cells were extracted and dispersed with physiological saline to a concentration of 1 × 10^7 cells/mL.

[6] = test system: VEGF; test: Serum VEGF level in H22 tumor-bearing mice; type: in vivo, Kunming mice; details: mean ± SD
Experimental: as §1, §2

[7] = Histopathological examination of liver and kidney (H&E staining); details: H22 tumor-bearing mice; CTX 20 mg/kg
Experimental: (§3) Mice were then killed by cervical dislocation after blood collected. The tumor, liver and kidney were rapidly separated, weighted and dissected for histopathological examination.
The tissue of tumor, liver and kidney from each mouse was quickly fixed in 10% neutral-buffered formalin for histopathology. The H&E staining of H22 solid tumor, liver and kidney tissue were embedded in paraffin and sectioned into sections with a thickness of 5 µm which were conducted following the manufacturer’s instructions in respective kit. Tumor, liver and kidney tissue sections were observed by light microscopy (Leica DM750, Solms, Germany) and recorded by photography (×400).

[8] = Body weight and organ indexes in H22 tumor-bearing mice
Experimental: Before administration every day, the tumor size and body weight were measured. When the tumor was larger than 20 mm in diameter, animals were euthanized according to the IACUC proposals.
as §3
The liver and kidney indexes were calculated as follows: organ index (mg/g) =average weight of organ/average body weight.

[9] = cited from earlier work
[10] = rat, in vivo; cited from earlier work
[11] = HepG2, CCK-8, 48 h, mean of three experiments ±SD
[12] = 25 mg/kg intragastrically once a day for 14 days
[13] = 50 mg/kg intragastrically once a day for 14 days
[14] = 20 mg/kg intragastrically once a day for 14 days
[15] = serum, H22 tumor-bearing mice, 20 mg/kg

**Q.** Which IL-2 level ([1]; n = 6, 25 mg/kg) does the source give for `CC(C)(O)[C@H]1CC[C@@](C)(C2CC[C@]3(C)C2[C@H](O)CC2[C@@]4(C)CC[C@H](OC(=O)C5CCCN5)C(C)(C)C4CC[C@]23C)O1` (stereo partly drawn) [2e, (20S, 24R)-Epoxy-3β-O-(L-prolyl)-dammarane-12β, 25-diol] here?
**A.** 111.13 ± 13.28 pg/mL

**Q.** And the IL-2 level ([1]; n = 6, 50 mg/kg)?
**A.** 136.86 ± 22.66 pg/mL

**Q.** And the IL-2 level ([1]; n = 6, 100 mg/kg)?
**A.** 174.11 ± 28.90 pg/mL

**Q.** What about the IC50 [2, 11] of the same compound?
**A.** 11.3 ± 0.43 µM

**Q.** And the ALT ([3]; mouse, in vivo, 25 mg/kg)?
**A.** 43.62 ± 5.15 ^##, ** IU/L

**Q.** And the AST ([3]; mouse, in vivo, 25 mg/kg)?
**A.** 42.51 ± 5.22 ^##, ** IU/L

**Q.** What about the CRE ([3]; mouse, in vivo, 25 mg/kg) of the same compound?
**A.** 31.17 ± 9.03 µmol/L

**Q.** And the ALT ([3]; mouse, in vivo, 50 mg/kg)?
**A.** 42.31 ± 5.00 ^##, ** IU/L

**Q.** And the AST ([3]; mouse, in vivo, 50 mg/kg)?
**A.** 38.69 ± 6.43 ^##, ** IU/L

**Q.** And the BUN ([3]; mouse, in vivo, 50 mg/kg)?
**A.** 11.06 ± 2.16 mmol/L

**Q.** And the CRE ([3]; mouse, in vivo, 50 mg/kg)?
**A.** 28.95 ± 9.16 µmol/L

**Q.** And the ALT ([3]; mouse, in vivo, 100 mg/kg)?
**A.** 35.37 ± 3.32 ^##, ** IU/L

**Q.** And the AST ([3]; mouse, in vivo, 100 mg/kg)?
**A.** 31.47 ± 4.48 ^#, ** IU/L

**Q.** And the BUN ([3]; mouse, in vivo, 100 mg/kg)?
**A.** 10.32 ± 2.77 mmol/L

**Q.** What about the CRE ([3]; mouse, in vivo, 100 mg/kg) of the same compound?
**A.** 26.93 ± 10.60 µmol/L

**Q.** What about the TNF-α level ([4]; n = 6, 25 mg/kg) of the same compound?
**A.** 287.01 ± 39.10 pg/mL

**Q.** What about the TNF-α level ([4]; n = 6, 50 mg/kg) of the same compound?
**A.** 321.97 ± 55.57 pg/mL

**Q.** And the TNF-α level ([4]; n = 6, 100 mg/kg)?
**A.** 358.35 ± 45.19 pg/mL

**Q.** What about the “Inhibitory Rate (tumor inhibition rate, TIR)” value (shortened to “Inhibitory Rate”) [5, 12] of the same compound?
**A.** 16.20%

**Q.** What about the “Tumor Weight” value [5, 12] of the same compound?
**A.** 1.35 ± 0.26 g

**Q.** What about the “Inhibitory Rate” value [5, 13] of the same compound?
**A.** 24.76%

**Q.** What about the “Tumor Weight” value [5, 13] of the same compound?
**A.** 1.21 ± 0.34 g

**Q.** What about the “Tumor Weight” value ([5]; 100 mg/kg intragastrically once a day for 14 days) of the same compound?
**A.** 1.04 ± 0.23 g

**Q.** And the “Inhibitory Rate” value ([5]; 100 mg/kg intragastrically once a day for 14 days, listed as Compound 2e, 100 mg/kg)?
**A.** 35.32%

**Q.** And the “Inhibitory Rate” value ([5]; 100 mg/kg intragastrically once a day for 14 days, listed as compound 2e, 100 mg/kg)?
**A.** 35.32%

**Q.** What about the “Effect on tumor volume compared to the model group” value ([5]; 50, 100 mg/kg, p < 0.05, p < 0.01) of the same compound?
**A.** significantly reduce

**Q.** And the VEGF level ([6]; n = 6, 25 mg/kg)?
**A.** 158.32 ± 15.97 ^##, * pg/mL

**Q.** What about the VEGF level ([6]; n = 6, 50 mg/kg) of the same compound?
**A.** 127.62 ± 17.46 ^##, ** pg/mL

**Q.** What about the VEGF level ([6]; n = 6, 100 mg/kg) of the same compound?
**A.** 114.67 ± 15.42 pg/mL

**Q.** With `O=P1(N(CCCl)CCCl)NCCCO1` (stereo not drawn) [Cyclophosphamide, reference compound] as the compound, how does the IL-2 level ([1]; n = 6, 20 mg/kg) read?
**A.** 110.52 ± 17.54 pg/mL

**Q.** And the “Liver and kidney cell morphology (H&E)” value [7]?
**A.** many vacuoles and edema

**Q.** What about the IC50 ([2]; HepG2, 48 h) of the same compound?
**A.** 9.18 ± 0.34 µM

**Q.** What about the “Body weight D14” value [8, 14] of the same compound?
**A.** 32.76 ± 3.14 g

**Q.** And the “Increase of Body Weight” value [8, 14]?
**A.** 11.56 ± 3.23 g

**Q.** And the “Kidney Index” value [8, 14]?
**A.** 13.27 ± 1.96 mg/g

**Q.** And the “Liver Index” value [8, 14]?
**A.** 51.54 ± 7.69 mg/g

**Q.** What about the “Body weight D1” value ([8]; D1, 20 mg/kg group) of the same compound?
**A.** 21.20 ± 1.71 g

**Q.** And the ALT [3, 15]?
**A.** 50.61 ± 3.22 ^##, ** IU/L

**Q.** And the AST [3, 15]?
**A.** 53.47 ± 5.04 ^##, ** IU/L

**Q.** And the BUN [3, 15]?
**A.** 14.23 ± 2.38 ^##, * mmol/L

**Q.** What about the CRE [3, 15] of the same compound?
**A.** 32.86 ± 7.74 µmol/L

**Q.** What about the TNF-α level ([4]; n = 6, 20 mg/kg) of the same compound?
**A.** 207.47 ± 23.37 ^##, ** pg/mL

**Q.** What about the “Inhibitory Rate” value [5, 14] of the same compound?
**A.** 49.69%

**Q.** And the “Tumor Weight” value [5, 14]?
**A.** 0.81 ± 0.18 g

**Q.** What about the “Effect on tumor volume compared to the model group” value ([5]; CTX 20 mg/kg, p < 0.01) of the same compound?
**A.** significantly reduce

**Q.** And the VEGF level ([6]; n = 6, 20 mg/kg)?
**A.** 103.43 ± 14.00 pg/mL

**Q.** For `CC(C)(O)C1CCC(C)(C2CCC3(C)C2C(O)CC2C4(C)CCC(O)C(C)(C)C4C(O)CC23C)O1` (stereo not drawn) [Ocotillol], which “plasma protein binding rates” value [9] is on record?
**A.** high

**Q.** What about the IC50 [2, 11] of the same compound?
**A.** 92.7 ± 3.07 µM

**Q.** What about the absorption into blood [10] of the same compound?
**A.** poor

**Q.** And the systemic exposure [10]?
**A.** low

**Q.** And the t1/2 [10]?
**A.** long
